One series addresses T1, p38α/MK2 (Homo sapiens, UniProt P49137+Q16539).
T1 construct: purchased R & D systems (p38 alpha); Thermo (MK2) 5477-KS-010; PV3316
Briefly: Inhibition of p38α/MK2 enzyme activity (TR-FRET, ULight-CREBtide). Particulars: for IC50: 0.06 nM p38a, 1.2 nM MK2, 25 μM ATP, read-out: p38/MK2 IC50; for Selectivity ratio (p38 IC50 / p38/MK2 IC50): selectivity ratio p38 IC50 over p38/MK2 IC50. The format is biochemical. As for the experimental part:
(§1) 50 nM ULight-CREBtide and 25 μM ATP (ATP Solution) were added, and the mixture was reacted at room temperature for 1.5 hours. An equal volume of a detection and termination mixed solution (1×LANCE detection buffer containing 20 mM EDTA and 2 nM Europium-anti-phospho-CREB) was added, the mixture was mixed until uniform and centrifuged, a plate sealing film was attached, and a reaction was performed at room temperature for 1 hour. TR-FRET program of the EnVision instrument was used to read the plate, and the fluorescence value of each well was detected at 665 nm/615 nm.
(§2) Calculation was performed on the raw data (665 nm/615 nm reading ratio) according to the following formula to obtain the inhibition rate. Inhibition rate %=[(mean value in positive control well−value in sample well)/(mean value in positive control well−mean value in negative control well)]×100, wherein the positive control well was a reaction well without a compound […], and the negative control well was a reaction wells without an enzyme.
(§3) Log(inhibitor) vs. response−Variable slope (four parameters) in GraphPad Prism 6 was used for fitting equation analysis of the compound concentration and the corresponding inhibition rate, and the curve was fitted to obtain the IC50 value of the compound.
(§4) The fitting calculation equation was Y=Bottom+(Top−Bottom)/(1+10^((Log IC50−X)*HillSlope)).
(In general: TR-FRET usually uses a lanthanide donor and a delayed reading to cut background.)

Series [1] addresses T2, p38a (Active p38 alpha Protein) (Homo sapiens, UniProt Q16539).
T2 construct: purchased R & D systems 5477-KS-010
Nature of the series: Inhibition of p38 enzyme activity (TR-FRET, ULight-MBP). The format is biochemical. Particulars: 3 nM p38a, 50 μM ATP. As to the method:
as §1, with “Experimental method for determining the p38 enzyme activity: 3 nM p38a (Active p38 alpha Protein) and compounds diluted in a certain concentration gradient were incubated in 1× enzyme reaction buffer (50 mM HEPES pH 7.5, 1 mM EGTA, 10 mM MgCl2, 2 mM DTT, 0.01% Tween-20) for 1 hour. 50” for “50”, “ULight-MBP” for “ULight-CREBtide”, “50” for “25”, “(ATP 10 mM” for “(ATP”, “Europium-anti-P-MBP)” for “Europium-anti-phospho-CREB)”
as §2, §3, §4

The test system of another series is p-Hsp27 in U937 cells. Nature of the series: Inhibition of p-Hsp27 in LPS-stimulated U937 cells (ELISA). Type of series: cell-based. To be noted: Homo sapiens, U-937; PMA-differentiated U937, 10 ng/ml LPS 0.5 hours; read-out: U937 cell activity test p-HSP27 IC50. As to the method:
U937 cells were treated with 20 ng/ml PMA for differentiation overnight, and after replacement with a fresh culture medium, the U937 cells were rested overnight. After differentiation, the U937 cell were digested and counted, and 25,000 cells per well were seeded in a 96-well plate until the cells adhered to the wall. A compound concentration gradient was prepared, the cells were pretreated with the compound for 1 hour (the highest final concentration of the compound was 1 μM, diluted in 3-fold concentration gradient), and 10 ng/ml LPS (Lipopolysaccharides from Escherichia coli O111:B4) was added for stimulation for 0.5 hours. After the cells were washed with PBS, the cells were lysed with a lysis solution. p-Hsp27 in the cell lysate was detected by using Phospho-HSP27 (S78/S82) DuoSet IC ELISA kit. For specific steps, reference could be made to the standard steps provided by the kit manufacturer.
Calculation of p-Hsp27 inhibition rate: Inhibition rate %=[(mean value of p-Hsp27 in positive control well−mean value of p-Hsp27 in sample well)/(mean value of p-Hsp27 in positive control well−mean value of p-Hsp27 in negative control well)]×100%, wherein the positive control well was a well without a compound (DMSO-treated well), and the negative control well was a well without LPS stimulation.
Dose response curve fitting: Log(inhibitor) vs. response−Variable slope (four parameters) in GraphPad Prism 6 was used for fitting equation analysis of the compound concentration and the corresponding inhibition rate, and the curve was fitted to obtain the IC50 value of the compound.
as §4
In general terms: ELISA stands for enzyme-linked immunosorbent assay.

The test system of another series is TNF-α in U937 cells. Nature of the series: Inhibition of the expression level of TNF-α in LPS-stimulated U937 cells (ELISA). Type of series: cell-based. Particulars: Homo sapiens, U-937; PMA-differentiated U937, 10 ng/ml LPS 4 hours; read-out: U937 cell activity test TNF-α IC50. As to the method: U937 cells were treated with 20 ng/ml PMA for differentiation overnight, and after replacement with a fresh culture medium, the U937 cells were rested overnight. After differentiation, the U937 cells were digested and counted, and 50,000 cells per well were seeded in a 96-well plate until the cells adhered to the wall. A compound concentration gradient was prepared, the cells were pretreated with the compound for 1 hour (the highest final concentration of the compound was 1 μM, diluted in 3-fold concentration gradient), and 10 ng/ml LPS (Lipopolysaccharides from Escherichia coli O111:B4) was added for stimulation for 4 hours. Thereafter, the culture supernatant was collected by centrifugation and used for subsequent ELISA to detect the concentration of TNF-α in the supernatant. The concentration of TNF-α was detected according to the standard steps provided by the ELISA kit manufacturer.
A standard curve was plotted by a linear regression method from a TNF-α standard, and the concentration of TNF-α in a sample was derived by conversion according to the standard curve.
Calculation of inhibition rate: Inhibition rate %=[(mean value of TNF-α concentration in positive control well−mean value of TNF-α concentration in sample well)/(mean value of TNF-α concentration in positive control well−mean value of TNF-α concentration in negative control well)]×100%, wherein the positive control well was a well without a compound (DMSO-treated well), and the negative control well was a culture medium well.
Dose response curve fitting: Log(inhibitor) vs. response−Variable slope (four parameters) in GraphPad Prism 6 was used for fitting equation analysis of the compound concentration and the corresponding inhibition rate, and the curve was fitted to obtain the IC50 value of the compound. The fitting calculation equation was Y=Bottom+(Top−Bottom)/(1+10^((Log IC50−X)*HillSlope)).

A short description of series [2]: Pharmacokinetic assay in SD rats (PO administration). To be noted: male, Sprague-Dawley (SD), rat, 5 mg/kg, plasma; for AUC(0-inf): read-out: Area under the curve AUC0-∞; for half-life: read-out: Half-life t1/2 (converted); for MRT: read-out: Mean residence time MRT; for Cmax: read-out: Plasma concentration Cmax; for Tmax: read-out: Time to peak tmax. The format is in vivo. As for the experimental part:
SD rats were used as test animals to study the pharmacokinetic behavior of the compounds of the present invention in the rat body (plasma) after oral administration at a dose of 5 mg/kg or 2 mg/kg and intravenous administration at a dose of 1 mg/kg.
3 SD rats/group, male, from Shanghai Jiesijie Experimental Animal Co., Ltd., animal production license number (SCXK (Shanghai) 2013-0006 N0.311620400001794).
PO, 10% solutol HS15 was dissolved by ultrasound and prepared into a clear solution or homogeneous suspension.
3 SD rats/group, male; After fasting overnight, the rats were administered p.o. at a dose of 5 mg/kg or 2 mg/kg with a dosage volume of 10 mL/kg and i.v. at a dose 1 mg/kg with a dosage volume of 5 mL/kg, respectively.
At 0.25, 0.5, 1, 2, 4, 6, 8, and 24 h after oral administration in the rats and at 0.083, 0.25, 0.5, 1, 2, 4, 6, 8, and 24 h after intravenous administration in the rats, 0.2 mL of blood was collected from the jugular vein, placed in an EDTA-K2 test tube, centrifuged at 4° C. at 6000 rpm for 6 min to separate plasma, which was stored at −80° C.
• 1) 100 μL of acetonitrile was added to 20 μL of plasma sample for pelleting, and it was mixed and centrifuged at 3500×g for 5-20 min. • 2) The treated supernatant solution was taken and subjected to LC/MS/MS to analyze the concentrations of the test compounds. LC/MS/MS analysis instrument: AB Sciex API 4000 Qtrap.
• Liquid phase conditions: Shimadzu LC-20AD pump • Chromatographic column: Waters Xbridge C18 5 μm, 4.6×50 mm, mobile phase: liquid A was 0.1% aqueous formic acid solution, and liquid B was methanol • Flow rate: 1.0 mL/min • Elution time: 0-4.0 min, the eluent was as follows:
The main pharmacokinetic parameters were calculated using WinNonlin 6.1.

The results in this text go back to patent publication US20250066360A1, “PYRIDINE-CONTAINING POLYCYCLIC DERIVATIVE, AND PREPARATION METHOD THEREFOR AND USE THEREOF” (SHANGHAI HANSOH BIOMEDICAL CO., LTD., priority 2022, published 2025).

As a reminder, the MRT is the average time that molecules of a dose stay in the body. As usually defined, the Tmax is the time at which the peak concentration occurs.

T2 sequence (Q16539 whole entry): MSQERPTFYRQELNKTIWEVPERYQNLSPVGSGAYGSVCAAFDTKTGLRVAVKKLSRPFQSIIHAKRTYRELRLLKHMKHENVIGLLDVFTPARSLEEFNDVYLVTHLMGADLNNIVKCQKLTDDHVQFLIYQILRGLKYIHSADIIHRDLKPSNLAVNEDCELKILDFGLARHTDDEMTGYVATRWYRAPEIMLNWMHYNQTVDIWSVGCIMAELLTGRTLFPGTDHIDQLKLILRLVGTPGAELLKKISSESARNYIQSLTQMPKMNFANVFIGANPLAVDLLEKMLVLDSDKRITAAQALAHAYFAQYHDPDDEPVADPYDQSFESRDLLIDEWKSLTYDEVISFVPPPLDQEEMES
T1 sequence (Q16539 whole entry): as above
T1 sequence (P49137 whole entry): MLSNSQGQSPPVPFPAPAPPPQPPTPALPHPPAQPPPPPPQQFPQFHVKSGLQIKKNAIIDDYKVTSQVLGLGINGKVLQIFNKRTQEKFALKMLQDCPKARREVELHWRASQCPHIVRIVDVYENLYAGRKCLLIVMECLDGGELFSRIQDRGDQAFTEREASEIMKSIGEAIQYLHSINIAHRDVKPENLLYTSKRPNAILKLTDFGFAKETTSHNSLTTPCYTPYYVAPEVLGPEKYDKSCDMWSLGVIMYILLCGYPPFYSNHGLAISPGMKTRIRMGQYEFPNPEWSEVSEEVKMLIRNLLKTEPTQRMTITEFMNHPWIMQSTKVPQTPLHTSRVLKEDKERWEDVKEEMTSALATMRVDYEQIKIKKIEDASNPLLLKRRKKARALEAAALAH

Take `[2H]C([2H])(Oc1cc2n(c(=O)c1Cl)-c1c(cnc(-n3cc(F)c(C(C)(C)NC(C)=O)n3)c1F)CCCC2)c1ncc(F)cc1F` [Example 6-1, (R)—N-(2-(1-(11-chloro-10-((3,5-difluoropyridin-2-yl)methoxy-d2)-1-fluoro-12-carbonyl-6,7,8,12-tetrahydro-5H-dipyrido[1,2-a:3′,4′-g]azocin-2-yl)-4-fluoro-1H-pyrazol-3-yl)propan-2-yl)acetamide]: on p38α/MK2, the IC50 was found to be 0.1 nM and the “Selectivity ratio (p38 IC50 / p38/MK2 IC50)” value stood at 153. In series [1], this molecule returned an IC50 of 15.3 nM. The IC50 in the series on p-Hsp27 in U937 cells worked out at 0.15 nM. For the same molecule, in the series on TNF-α in U937 cells, the IC50 came out at 0.16 nM. Moreover, in series [2], the AUC(0-inf) amounted to 14200 ng·h/mL, the half-life was 2.7 h, the MRT turned out to be 2.9 h and the Cmax was 4180 ng/mL. In addition, in series [2], the Tmax was 1 h.

For the molecule `[2H]C([2H])(Oc1cc2n(c(=O)c1Cl)-c1c(cnc(-c3ccnc(C(C)(C)O)n3)c1F)CCCC2)c1ncc(F)cc1F` [Example 9-1, (R)-11-chloro-10-((3,5-difluoropyridin-2-yl)methoxy-d2)-1-fluoro-2-(2-(2-hydroxypropan-2-yl)pyrimidin-4-yl)-5,6,7,8-tetrahydro-12H-dipyrido[1,2-a:3′4′-g]azocin-12-one], on p38α/MK2, the IC50 was 0.14 nM and the “Selectivity ratio (p38 IC50 / p38/MK2 IC50)” value is listed as 164. The IC50 in series [1] is 22.9 nM. Moreover, the IC50 with p-Hsp27 in U937 cells came out at 0.1 nM. Moreover, the IC50 in the series with TNF-α in U937 cells came to 0.12 nM. In series [2], the AUC(0-inf) came out at 22000 ng·h/mL, the half-life was 2.5 h, the MRT was found to be 3.8 h and the Cmax is 3760 ng/mL. In series [2], the Tmax turned out to be 0.5 h.

As to `[2H]C([2H])(Oc1cc(C)n(-c2cc(-n3cccc(C(C)(C)NC(C)=O)c3=O)ncc2C)c(=O)c1Cl)c1ccc(F)cc1F` [Example 13-1, (S)—N-(2-(3″-chloro-4″-((2,4-difluorophenyl)methoxy-d2)-5′,6″-dimethyl-2,2″-dicarbonyl-2H,2″H-[1,2′:4′,1″-terpyridin]-3-yl)propan-2-yl)acetamide], the IC50 came out at 0.12 nM on p38α/MK2, 16.5 nM in series [1], 0.56 nM in the series with p-Hsp27 in U937 cells and 0.51 nM in the series on TNF-α in U937 cells. Also, on p38α/MK2, the “Selectivity ratio (p38 IC50 / p38/MK2 IC50)” value was determined as 138.

`[2H]C([2H])(Oc1cc(C)n(-c2cc(-n3cccc(C(C)(C)O)c3=O)ncc2C)c(=O)c1Cl)c1ccc(F)cc1F` [Example 14-1, (S)-3″-chloro-4″-((2,4-difluorophenyl)methoxy-d2)-3-(2-hydroxypropan-2-yl)-5′,6″-dimethyl-2H,2″H-[1,2′:4′,1″-terpyridine]-2,2″-dione]: the IC50 came out at 0.05 nM at p38α/MK2, 5.1 nM in series [1], 0.13 nM with p-Hsp27 in U937 cells and 0.12 nM in the series with TNF-α in U937 cells. The “Selectivity ratio (p38 IC50 / p38/MK2 IC50)” value at p38α/MK2 is listed as 102.

Regarding `[2H]C([2H])(Oc1cc2n(c(=O)c1Cl)-c1cc(-n3cccc(C(C)(C)O)c3=O)ncc1CCCC2)c1ncc(F)cc1F` [Example 15-1, (S)-11-chloro-10-((3,5-difluoropyridin-2-yl)methoxy-d2)-2-(3-(2-hydroxypropan-2-yl)-2-carbonylpyridin-1(2H)-yl)-5,6,7,8-tetrahydro-12H-dipyrido[1,2-a:3′,4′-g]azocin-12-one], the IC50 on p38α/MK2 was 0.2 nM; in series [1] it was 53.6 nM; in the series with p-Hsp27 in U937 cells, 0.32 nM; with TNF-α in U937 cells it was 0.18 nM. The “Selectivity ratio (p38 IC50 / p38/MK2 IC50)” value at p38α/MK2 was found to be 268.
